Assays:
Human AML MV-4-11 cells = assay: Inhibition of cell proliferation in MV4-11 cells (CellTiter Aqueous One); format: cell-based; settings: 72 h
Experimental: In this example, cell titer in MV4-11 cells were quantitated to measure the inhibition of proliferation when treated with a compound of the present disclosure.
MV4-11 cells (CRL-9591) were plated at a density of 5×10^4 cells per well in 96 well flat bottom plates and treated with increasing concentrations of test compound or DMSO (0.1%) in IMDM media containing 10% FBS and penicillin/streptomycin. Triplicate wells were used for each concentration and a well containing only media was used as a control. Plates were incubated at 37° C., 5% CO2 for 72 h before adding 20 μL of the CellTiter Aqueous One Solution (Promega) to each well and incubated at 37° C., 5% CO2 for an additional 3-4 h. The absorbance was read at 490 nm in a spectrophotometer and the percentage of cell titer relative to DMSO-treated cells was calculated after correcting for background by subtracting the blank well's signal. IC50 values were calculated using the Graph Pad Prism software.

hIL-6 mRNA in U937 cells = assay: Inhibition of hIL-6 mRNA transcription in LPS-stimulated U937 cells; format: cell-based; settings: Homo sapiens, U-937, PMA-differentiated U937 cells, LPS 1 ug/mL, 3 h, read-out: IL-6 activity
Experimental: In this example, hIL-6 mRNA in tissue culture cells were quantitated to measure the transcriptional inhibition of hIL-6 when treated with a compound of the present disclosure.
Human leukemic monocyte lymphoma U937 cells (CRL-1593.2) were plated at a density of 3.2×10^4 cells per well in a 96-well plate in 100 μL RPMI-1640 containing 10% FBS and penicillin/streptomycin, and differentiated into macrophages for 3 days in 60 ng/mL PMA ([…]) at 37° C. in 5% CO2 prior to the addition of compound. The cells were pretreated for 1 h with increasing concentrations of test compound in 0.1% DMSO prior to stimulation with 1 ug/mL lipopolysaccharide from Escherichia coli. Triplicate wells were used for each concentration. The cells were incubated at 37° C., 5% CO2 for 3 h before the cells were harvested. At time of harvest, media was removed and cells were rinsed in 200 μL PBS. Cells were harvested using the mRNA Catcher PLUS kit according to manufacturer's instructions. The eluted mRNA was then used in a one-step quantitative real-time PCR reaction using components of the RNA UltraSense™ One-Step Kit (Life Technologies) together with Applied Biosystems TaqMan® primer-probes for hIL-6 and Cyclophilin. Real-time PCR plates were run on a ViiA™7 real time PCR machine (Applied Biosystems), data was analyzed, normalizing the Ct values for hIL-6 to an internal control, prior to determining the fold expression of each sample, relative to the control.

[1] = tested on: c-myc in Human AML MV4-11 cells; assay: Inhibition of c-MYC expression (mRNA, real-time PCR) in MV4-11 cells; format: cell-based; settings: 3 h, mRNA by real-time PCR
Experimental: MV4-11 cells (CRL-9591) were plated at a density of 2.5×10^4 cells per well in 96 well U-bottom plates and treated with increasing concentrations of test compound or DMSO (0.1%) in IMDM media containing 10% FBS and penicillin/streptomycin, and incubated for 3 h at 37° C. Triplicate wells were used for each concentration. Cells were pelleted by centrifugation and harvested using the mRNA Catcher PLUS kit according to manufacturer's instructions. The eluted mRNA isolated was then used in a one-step quantitative real-time PCR reaction, using components of the RNA UltraSense™ One-Step Kit (Life Technologies) together with Applied Biosystems TaqMan® primer-probes for cMYC and Cyclophilin. Real-time PCR plates were run on a ViiA™7 real time PCR machine (Applied Biosystems), data was analyzed, normalizing the Ct values for hMYC to an internal control, prior to determining the fold expression of each sample, relative to the control.

[2] = target: T1, Brd4 bromodomain 1 (BRD4(1)) (Homo sapiens, UniProt O60885); assay: Inhibition of tetra-acetylated histone H4 binding to Brd4 bromodomain 1 (HTRF/FRET); settings: tetra-acetylated histone H4 peptide, His-tagged bromodomain 200 nM, 2 h
T1 construct: made in house; host or cells: E. coli BL21(DE3)
Experimental: Proteins were cloned and overexpressed with a N-terminal 6×His tag, then purified by nickel affinity followed by size exclusion chromatography. Briefly, E. coli BL21(DE3) cells were transformed with a recombinant expression vector encoding N-terminally Nickel affinity tagged bromodomains from Brd2, Brd3, Brd4. Cell cultures were incubated at 37° C. with shaking to the appropriate density and induced overnight with IPTG. The supernatant of lysed cells was loaded onto Ni-IDA column for purification. Eluted protein was pooled, concentrated and further purified by size exclusion chromatography. Fractions representing monomeric protein were pooled, concentrated, aliquoted, and frozen at −80° C. for use in subsequent experiments.
Binding of tetra-acetylated histone H4 and BET bromodomains was confirmed by a Homogenous Time Resolved Fluorescence Resonance Energy Transfer (HTRF®) method. N-terminally His-tagged bromodomains (200 nM) and biotinylated tetra-acetylated histone H4 peptide (25-50 nM, Millipore) were incubated in the presence of Europium Cryptate-labeled streptavidin (Cisbio Cat. #610SAKLB) and XL665-labeled monoclonal anti-His antibody (Cisbio Cat. #61HISXLB) in a white 96 well microtiter plate (Greiner). For inhibition assays, serially diluted test compound was added to these reactions in a 0.2% final concentration of DMSO. Duplicate wells were used for each concentration tested. Final buffer concentrations were 30 mM HEPES pH 7.4, 30 mM NaCl, 0.3 mM CHAPS, 20 mM phosphate pH 7.0, 320 mM KF, 0.08% BSA. After a 2 h incubation at room temperature, fluorescence was measured at 665 and 620 nm with a SynergyH4 plate reader (Biotek). The binding inhibitory activity was shown by a decrease in 665 nm relative to 620 nm fluorescence. IC50 values were determined from a dose response curve.

[3] = tested on: hIL-17 mRNA in human peripheral blood mononuclear cells; assay: Inhibition of hIL-17 mRNA transcription in OKT3-stimulated PBMC; format: cell-based; settings: OKT3 antibody, 6 h, read-out: IL-17 activity
Experimental: In this example, hIL-17 mRNA in human peripheral blood mononuclear cells were quantitated to measure the transcriptional inhibition of hIL-17 when treated with a compound of the present disclosure.
Human peripheral blood mononuclear cells were plated (2.0×10^5 cells per well) in a 96-well plate in 45 μL OpTimizer T Cell expansion media (Life Technologies) containing 20 ng/ml IL-2 and penicillin/streptomycin. The cells were treated with increasing concentrations of the test compound or DMSO (0.1%), and incubated at 37° C., 5% CO2 for 1 h before addition of 10× stock OKT3 antibody at 10 ug/ml in media. Triplicate wells were used for each concentration. Cells were incubated at 37° C., 5% CO2 for 6 h before the cells were harvested. At time of harvest, cells were pelleted by centrifugation at 800 rpm for 5 min. Cells were harvested using the mRNA Catcher PLUS kit according to manufacturer's instructions. The eluted mRNA was then used in a one-step quantitative real-time PCR reaction, using components of the RNA UltraSense™ One-Step Kit (Life Technologies) together with Applied Biosystems TaqMan® primer-probes for hIL-17 and Cyclophilin. Real-time PCR plates were run on a ViiA™7 real time PCR machine (Applied Biosystems), data was analyzed, normalizing the Ct values for hIL-17 to an internal control, prior to determining the fold induction of each unknown sample, relative to the control.

[4] = tested on: hApoA-I mRNA in Huh7 cells; assay: Up-regulation of hApoA-1 mRNA transcription in Huh7 cells; format: cell-based, Human; settings: EC170, Huh7 cells, 48 h
Experimental: In this example, hApoA-I mRNA in tissue culture cells was quantitated to measure the transcriptional up-regulation of hApoA-I when treated with a compound of the present disclosure.
Huh7 cells (2.5×10^5 per well) were plated in a 96-well plate using 100 μL DMEM per well, (Gibco DMEM supplemented with penicillin/streptomycin and 10% FBS), 72 h before the addition of the compound. The cells are treated with increasing concentrations of the compound or DMSO (0.1%), and incubated at 37° C., 5% CO2 for 48 h. Spent media was removed from the Huh-7 cells and placed on ice for immediate use with the “LDH cytotoxicity assay Kit II” from Abcam. The cells remaining in the plate were rinsed with 100 μL PBS. Cells were harvested using the mRNA Catcher PLUS kit according to manufacturer's instructions. The eluted mRNA was then used in a one-step quantitative real-time PCR reaction, using components of the RNA UltraSense™ One-Step Kit (Life Technologies) together with Applied Biosystems TaqMan® primer-probes for hApoA-I and Cyclophilin. Real-time PCR plates were run on a ViiA™7 real time PCR machine (Applied Biosystems), data was analyzed, normalizing the Ct values for hApoA-1 to an internal control, prior to determining the fold induction of each unknown sample, relative to the control.

Compound | IC50 (Human AML MV-4-11 cells) | IC50 (hIL-6 mRNA in U937 cells) | IC50 [1] | IC50 [2] | IC50 [3] | ApoA-1 activity [4]
Cc1noc(C)c1-c1cc(-c2ccccc2C(F)(F)F)c2c(c1)[nH]c(=O)n2C [Example Compound 5, 5-(3,5-dimethylisoxazol-4-yl)-1-methyl-7-(2-(trifluoromethyl)phenyl)-1H-benzo[d]imidazol-2(3H)-one] | ≤ 300 nM | ≤ 300 nM | ≤ 300 nM | ≤ 300 nM | 300 to 3000 nM | –
Cc1noc(C)c1-c1cc(-c2cccc(C(N)=O)c2C)c2c(c1)[nH]c(=O)n2C [Example Compound 30, 3-(6-(3,5-dimethylisoxazol-4-yl)-3-methyl-2-oxo-2,3-dihydro-1H-benzo[d]imidazol-4-yl)-2-methylbenzamide] | ≤ 300 nM | ≤ 300 nM | ≤ 300 nM | ≤ 300 nM | ≤ 300 nM | –
Cc1cnsc1-c1cc(-c2c(C)noc2C)cc2[nH]c(=O)n(C)c12 [Example Compound 10, 5-(3,5-dimethylisoxazol-4-yl)-1-methyl-7-(4-methylisothiazol-5-yl)-1H-benzo[d]imidazol-2(3H)-one] | ≤ 300 nM | ≤ 300 nM | ≤ 300 nM | ≤ 300 nM | ≤ 300 nM | –
Cc1noc(C)c1-c1cc(-c2c(C)nn(C)c2C)c2[nH]c(=O)[nH]c2c1 [Example Compound 22, 6-(3,5-dimethylisoxazol-4-yl)-4-(1,3,5-trimethyl-1H-pyrazol-4-yl)-1H-benzo[d]imidazol-2(3H)-one] | ≤ 300 nM | ≤ 300 nM | ≤ 300 nM | ≤ 300 nM | ≤ 300 nM | –
Cc1noc(CO)c1-c1cc(-c2c(C)nn(C)c2C)c2c(c1)[nH]c(=O)n2C [Example Compound 28, 5-(5-(hydroxymethyl)-3-methylisoxazol-4-yl)-1-methyl-7-(1,3,5-trimethyl-1H-pyrazol-4-yl)-1H-benzo[d]imidazol-2(3H)-one] | 300 to 3000 nM | 300 to 3000 nM | 300 to 3000 nM | ≤ 300 nM | 300 to 3000 nM | –
Cc1n[nH]c(C)c1-c1cc(-c2c(C)noc2C)cc2[nH]c(=O)n(C)c12 [Example Compound 21, 7-(3,5-dimethyl-1H-pyrazol-4-yl)-5-(3,5-dimethylisoxazol-4-yl)-1-methyl-1H-benzo[d]imidazol-2(3H)-one] | ≤ 300 nM | ≤ 300 nM | ≤ 300 nM | ≤ 300 nM | ≤ 300 nM | –
Cc1ncccc1-c1cc(-c2c(C)noc2C)cc2[nH]c(=O)n(C)c12 [Example Compound 4, 5-(3,5-dimethylisoxazol-4-yl)-1-methyl-7-(2-methylpyridin-3-yl)-1H-benzo[d]imidazol-2(3H)-one] | 300 to 3000 nM | ≤ 300 nM | ≤ 300 nM | ≤ 300 nM | 300 to 3000 nM | +++ (EC170 value less than or equal to 0.3 μM were deemed to be highly active (+++))
COc1ccc(F)cc1-c1cc(-c2c(C)noc2C)cc2[nH]c(=O)n(C)c12 [Example Compound 18, 5-(3,5-dimethylisoxazol-4-yl)-7-(5-fluoro-2-methoxyphenyl)-1-methyl-1H-benzo[d]imidazol-2(3H)-one] | 300 to 3000 nM | ≤ 300 nM | 300 to 3000 nM | ≤ 300 nM | ≤ 300 nM | –
COc1ncccc1-c1cc(-c2c(C)noc2C)cc2[nH]c(=O)n(C)c12 [Example Compound 13, 5-(3,5-dimethylisoxazol-4-yl)-7-(2-methoxypyridin-3-yl)-1-methyl-1H-benzo[d]imidazol-2(3H)-one] | 300 to 3000 nM | 300 to 3000 nM | ≤ 300 nM | ≤ 300 nM | 300 to 3000 nM | +++ (EC170 value less than or equal to 0.3 μM were deemed to be highly active (+++))
Cc1noc(C)c1-c1cc(-c2c(C)noc2C)c2c(c1)[nH]c(=O)n2C [Example Compound 2, 5,7-bis(3,5-dimethylisoxazol-4-yl)-1-methyl-1H-benzo[d]imidazol-2(3H)-one] | 300 to 3000 nM | ≤ 300 nM | ≤ 300 nM | ≤ 300 nM | ≤ 300 nM | –

Source: US10226451B2, “Substituted bicyclic compounds as bromodomain inhibitors” (ZENITH EPIGENETICS LTD, priority 2013, dated 2019)
